Measured values published in the NIST ThermoML archive (doi:10.1007/s10765-005-5585-3).

Conditions: 101.33 kPa, Liquid; for mass density: UV imaging technique; for viscosity: oscillations around equilibria

[Ir] [iridium]
Conditions | mass density [kg/m3] | viscosity [mPa·s]
2300 K | 19856 | –
2350 K | 19814 | –
2373 K | – | 8.47
2398 K | – | 8.34
2400 K | 19771 | –
2423 K | – | 8.21
2448 K | – | 8.08
2450 K | 19729 | –
2473 K | – | 7.97
2498 K | – | 7.85
2500 K | 19686 | –
2523 K | – | 7.74
2548 K | – | 7.63
2550 K | 19644 | –
2573 K | – | 7.53
2598 K | – | 7.42
2600 K | 19601 | –
2623 K | – | 7.33
2648 K | – | 7.23
2650 K | 19559 | –
2673 K | – | 7.14
2698 K | – | 7.05
2700 K | 19516 | –
2723 K | – | 6.97
2748 K | – | 6.88
2750 K | 19474 | –
2773 K | – | 6.8
2800 K | 19431 | –
2850 K | 19389 | –
2900 K | 19346 | –
2950 K | 19304 | –
3000 K | 19261 | –
